Results on ten molecules are retold here after US4912119A, “Imidazolylguanidine derivatives and compositions containing these compounds” (Heumann Pharma GmBH & Co., priority 1986, dated 1990).

The target in one assay is T1, histamine-H2 receptors (Cavia porcellus, UniProt P47747).
T1 construct: determined on isolated atrium and ileum of guinea-pig; from tissue; host or cells: isolated guinea-pig atrium
The assay can be described thus: H2-agonistic activity, isolated guinea-pig atrium (method of van Rossum, cumulative dose-response curves). The format is biochemical. The settings on record: read-out: pD2 -value (Atrium) (converted). From the text:
(§1) The compounds according to this invention are distinguished by a novel, hitherto unknown and undescribed pharmacological overall activity. The new class of structure according to this invention has both a H1 -antagonistic active component and an H2 -agonistic component. These manifest the pharmacological results shown below. One recognized method of determining the H1 -antagonistic activity is the determination of the pA2 -values in vitro (O. Arunlakshana and H. O. Schild, (1959), "Some Quantitative Uses of Drug Antagonists", Br. J. Pharmac. Chemother, 14, 48-58). To determine the H2 -agonistic activity (pD2 -values), the method of J. M. van Rossum, (1963) is employed, described in "Cumulative Dose-Response Curves II. Technique for the Making of Dose-Response Curves in Isolated Organs and the Evaluation of Drug Parameters", Arch. Intern. Pharmacodyn. Therap. 143, 299-307. |(determined on isolated atrium and ileum of guinea-pig)

A further assay has as its target T2, histamine H1 receptor (Cavia porcellus, UniProt P31389).
T2 construct: determined on isolated atrium and ileum of guinea-pig; from tissue; host or cells: isolated guinea-pig ileum
Put plainly: H1-antagonistic activity in vitro, isolated guinea-pig ileum (method of Arunlakshana and Schild). The format is biochemical. To be noted: for Kb: read-out: pA2 -value (Ileum) (converted).
Description: as §1

Counter-ions that a name gives are not always drawn.

T2 sequence (P31389 whole entry): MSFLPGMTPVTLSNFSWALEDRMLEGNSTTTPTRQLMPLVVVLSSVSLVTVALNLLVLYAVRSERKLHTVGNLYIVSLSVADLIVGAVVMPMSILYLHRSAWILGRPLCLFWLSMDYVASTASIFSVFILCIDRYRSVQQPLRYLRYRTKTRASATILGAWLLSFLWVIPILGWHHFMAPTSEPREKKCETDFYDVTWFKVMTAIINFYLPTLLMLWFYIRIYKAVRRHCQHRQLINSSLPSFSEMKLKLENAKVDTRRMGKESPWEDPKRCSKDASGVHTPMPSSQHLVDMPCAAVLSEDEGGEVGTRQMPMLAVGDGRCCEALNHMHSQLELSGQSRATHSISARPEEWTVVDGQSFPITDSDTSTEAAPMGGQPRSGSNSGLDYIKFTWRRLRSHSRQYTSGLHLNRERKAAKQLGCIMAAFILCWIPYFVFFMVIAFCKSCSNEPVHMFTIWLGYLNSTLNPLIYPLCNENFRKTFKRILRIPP
T1 sequence (P47747 whole entry): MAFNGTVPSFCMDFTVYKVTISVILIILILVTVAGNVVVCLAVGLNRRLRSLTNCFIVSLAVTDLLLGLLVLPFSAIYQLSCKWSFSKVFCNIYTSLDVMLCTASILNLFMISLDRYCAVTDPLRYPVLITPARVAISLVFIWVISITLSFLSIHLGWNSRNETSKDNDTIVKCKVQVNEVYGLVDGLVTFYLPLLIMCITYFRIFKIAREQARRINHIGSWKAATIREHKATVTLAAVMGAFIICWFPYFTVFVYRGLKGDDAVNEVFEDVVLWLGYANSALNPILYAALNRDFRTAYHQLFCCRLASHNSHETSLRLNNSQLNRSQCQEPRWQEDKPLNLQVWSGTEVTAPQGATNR

In the case of `N=C(NCCCc1c[nH]cn1)NCCC(c1cc(F)cc(F)c1)c1ccccn1` (centres unmarked) [Example 18, N^1-[3-(3,5-Difluorophenyl)-3-(pyridin-2-yl)propyl]-N^2-[3-(1H-imidazol-4-yl)propyl]-guanidine], the EC50 at histamine-H2 receptors is 8.91 nM. Moreover, on histamine H1 receptor, the Kb is 282 nM.
For `N=C(NCCCc1c[nH]cn1)NCCCN(Cc1ccc(Cl)cc1)c1ccccn1` [Example 3, N^1-[3-(1H-Imidazol-4-yl)propyl]-N^2-[3-[N-(4-chlorobenzyl)-N-(pyridin-2-yl)amino]propyl]-guanidine hydriodide], on histamine-H2 receptors, the EC50 was 2140 nM. Also, the Kb on histamine H1 receptor is 2.51 nM.
For the molecule `NC(=NCCCc1c[nH]cn1)NCCC(c1cccc(Cl)c1)c1ccccn1` (centres unmarked) [Example 20, N^1-[3-(3-Chlorophenyl)-3-(pyridin-2-yl)propyl]-N^2-[3-(1H-imidazol-4-yl)propyl]-guanidine], the EC50 at histamine-H2 receptors was 11.5 nM. In addition, at histamine H1 receptor, the “pA2 -value (Ileum)” value was found to be 7.05.
`CC(CCNC(=N)NCCCc1c[nH]cn1)(c1ccccc1)c1ccccc1` [Example 8, N^1-[3-(1H-Imidazol-4-yl)propyl]-N^2-(3,3-diphenylbutyl)-guanidine hydrochloride]: the EC50 at histamine-H2 receptors was 123 nM. Besides, the Kb at histamine H1 receptor is 37.2 nM.
Turning to `NC(=NCCCc1c[nH]cn1)NCCC(c1ccc(F)cc1)c1cccnc1` (centres unmarked) [Example 24, N^1-[3-(4-Fluorophenyl)-3-(pyridin-3-yl)propyl]-N^2-[3-(1H-imidazol-4-yl)-propyl]-guanidine], the EC50 at histamine-H2 receptors was 8.13 nM. Also, the “pA2 -value (Ileum)” value on histamine H1 receptor amounted to 6.71.
Take `NC(=NCCCc1c[nH]cn1)NCCC(c1ccc(F)c(F)c1)c1ccccn1` (centres unmarked) [Example 17, N^1-[3-(3,4-Difluorophenyl)-3-(pyridin-2-yl)propyl]-N^2-[3-(1H-imidazol-4-yl)propyl]-guanidine]: on histamine-H2 receptors, the EC50 was 7.59 nM. The “pA2 -value (Ileum)” value at histamine H1 receptor is reported as 7.07.
Consider `N=C(NCCCc1c[nH]cn1)NCCC(c1ccccn1)c1ccc(Cl)cc1Cl` (centres unmarked) [Example 16, N^1-[3-(2,4-Dichlorophenyl)-3-(pyridin-2-yl)propyl]-N^2-[3-(1H-imidazol-4-yl)-propyl]-guanidine], for which the EC50 on histamine-H2 receptors was 13.8 nM. On histamine H1 receptor, the Kb is 112 nM.
As to `N=C(NCCCc1c[nH]cn1)NCCC(c1ccc(Cl)c(Cl)c1)c1ccccn1` (centres unmarked) [Example 14, N^1-[3-(3,4-Dichlorophenyl)-3-(pyridin-2-yl)propyl]-N^2-[3-(1H-imidazol-4-yl)propyl]-guanidine], the EC50 at histamine-H2 receptors is 6.31 nM. Besides, the Kb on histamine H1 receptor is 115 nM.
Turning to `N=C(NCCCc1c[nH]cn1)NCCN(Cc1cccs1)c1ccccn1` [Example 4, N^1-[3-(1H-Imidazol-4-yl)propyl]-N^2 [2-[N-(pyridin-2-yl)-N-(thiophen-2-yl-methyl)amino]ethyl]-guanidine hydriodide], the EC50 at histamine-H2 receptors is 437 nM. At histamine H1 receptor, the Kb was 9.12 nM.
Turning to `N=C(NCCCCc1ccccn1)NCCCc1c[nH]cn1` [Example 2, N^1-[3-(1H-Imidazol-4-yl)propyl]-N^2-[4-(pyridin-2-yl)butyl]-guanidine hydriodide], the EC50 on histamine-H2 receptors is 112 nM. In addition, at histamine H1 receptor, the Kb is 309 nM.
